Reference: patent publication US10725042B2, “Methods of diagnosing and treating cancer” (Case Western Reserve University, priority 2012, dated 2020)

How the values were obtained:
[1] = system: uracil in DNA of UDG−/− cells; test: Uracil in DNA by HPLC/MS/MS, UDG−/− cells; assay type: cell-based, human; conditions: UDG−/− cells; drug 10 μM, 6-72 hr
Experimental: UDG^−/− and UDG^+/+ cells were exposed to pemetrexed (10 μM) or 5-fluorouracil (10 μM) for 6, 24, 48 and 72 hrs. At indicated time points, cells were harvested and genomic DNA was extracted by phenol/chloroform. Forty μg of DNA were incubated with 10 U of purified UDG (New England Biolabs) in 60 μL of reaction buffer at 37° C. for 2 hrs. The reaction products were dried at 35° C. in a Turbovap under a stream of nitrogen and reconstituted in 150 μL 90% acetonitrile. The analyte was retained by an Atlantis Hilis Silica analytical column (2.1×100 mm, 3.5 μM) and eluted isocratically by a mixture of 90% acetonitrile and 10% 2.0 mM ammonium formate at a flow rate of 0.2 ml/min. The detection was done by an API 3200 MS/MS mass spectrometer.

H1975 66 shUNG cells = test: Colony survival assay, H1975 66 shUNG cells; assay type: cell-based, human
Experimental: (§1) For cells in suspension, colony survival was determined by crystal violet staining of colonies formed after 10-day exposure of 5×10^3 cells to pemetrexed in soft agar. For adherent cells, colony survival was determined by methylene blue staining of colonies formed after 10-day exposure of 100 cells to pemetrexed in 6-well culture dishes. Only colonies containing ≥50 cells were counted. Data points represent percent of colonies relative to untreated control averaged over 3 experiments.
UNG directed shRNA and siRNA plasmids were purchased from Origene. Transfection was carried out according to manufacturer specifications. Stably transfected clones (shRNA) were selected with puromycin with subsequent expansion of a well-isolated colony of cells.

H1299/PR-1 cells = test: Colony survival assay, H1299/PR-1 pemetrexed-resistant subline; assay type: cell-based, human; conditions: PR-1 and PR-2 cells
Experimental: as §1
H1299 cells were exposed to step-wise increasing concentrations of pemetrexed over a period of 4 months. UNG expression was monitored in the bulk population at 2, 8, 12 and 16 weeks prior to administration of the induction dosage and at 24 weeks in a population of bulk chronically exposed cells that had been without pemetrexed for 8 weeks. H1299 cells capable of growth in 50 nM pemetrexed selection pressure were subcloned by limiting dilution in 96 well plates. Independent sublines were designated H1299/PR-1 and H1299/PR-2.

DLD1/UDG−/− cells = test: Colony survival (clonogenic) assay, UDG−/− cells; assay type: cell-based, human; conditions: 5-FU 0-20 μM, temozolomide 0-1500 μM, cisplatin 0-40 μM
Experimental: Recombinant virus was grown in 293T cells and subsequently used to infect DLD1 cells. Selection of positively transfected clones was achieved by the addition of G418 to the culture medium. A second infection of transfected clones with Cre-recombinase adenovirus caused excision of the neomycin resistance cassette. Dflag cell line was produced by transfection of UDG expression vector in UDG^−/− cells to restore UDG activity.
Tumor cells (500-2000/dish) were plated and treated with pemetrexed (0-400 nM), 5-fluorouracil (0-20 μM), temozolomide (0-1500 μM), or cisplatin (0-40 μM). After 7 days, surviving colonies were stained with methylene blue for 30 min at room temperature and the colonies containing more than 50 cells were counted to generate survival curves.

UNG−/− MEFs = conditions: treated UNG−/− MEFs; cited from earlier work
cell culture = test: Tolerance of MX in cell culture; assay type: cell-based; conditions: MX at 3 mM
[2] = system: 293t cells expressing the bacteriophage UNG inhibitor Ugi; conditions: treated 293t cells expressing Ugi; cited from earlier work

| Compound | cross sensitivity of UNG deficient H1975 cells (H1975 66 shUNG cells) | cross-resistance of PR-1 and PR-2 cells (H1299/PR-1 cells) | differential sensitivity of UDG−/− vs UDG+/+ cells (DLD1/UDG−/− cells) | increase in uracil (UNG−/− MEFs) [fold] | also measured |
| --- | --- | --- | --- | --- | --- |
| O=c1[nH]cc(F)c(=O)[nH]1 [5-FU, 5-fluorouracil] | some cross sensitivity | cross-resistance | more sensitive | 1.5 | uracil detected in DNA [1]: greater retention of uracil |
| O=c1[nH]c(=O)n([C@H]2C[C@H](O)[C@@H](CO)O2)cc1F [FdUrd] | – | – | – | 1.5 | – |
| CON [MX, methoxyamine] | – | – | – | – | tolerance in cell culture (cell culture): well tolerated |
| N.N.[Cl][Pt][Cl] [cisplatin] | not | not resistant | no significant differential sensitivity | – | – |
| Cc1nc2ccc(CN(C)c3ccc(C(=O)N[C@@H](CCC(=O)O)C(=O)O)s3)cc2c(=O)[nH]1 [raltitrexed] | some cross sensitivity | cross-resistance | – | – | increase in uracil [2]: 8 fold |
| Cc1cn([C@H]2C[C@H](O)[C@@H](CO)O2)c(=O)[nH]c1=O [thymidine] | – | – | – | – | effect of supplemental thymidine on pemetrexed sensitivity (H1975 66 shUNG cells; H1975 shUNG cells, 10 μM thymidine): rescued pemetrexed sensitivity |
